Results: patent publication US4678787A, “4H-1-benzopyran-4-ones and their sulfur containing analogs” (Warner-Lambert Company, priority 1985, dated 1987)

What was measured:
[1] = system: exploratory locomotor activity in mice; assay: Inhibition of exploratory locomotor activity, mouse IP (McLean et al. screen); assay type: in vivo; conditions: read-out: Inh. Loc. Act. (mouse IP) (ED50)
Text: (§1) All compounds shown in the following Table 1 are active in laboratory tests that have been useful as predictors of antipsychotic efficacy (e.g., treatment of schizophrenia). Among these tests described by J. R. McLean, R. B. Parker, and L. L. Coughenour in Pharmacol. Biochem. Behav. 1978 (8) 97, is one which screens for compounds that decrease exploratory locomotor activity in mice and rats without causing ataxia. […] All known antipsychotic agents are active in this test. Our compounds are also active at doses as low as 0.35 mg/kg.

[2] = system: exploratory locomotor activity in rats; assay: Inhibition of exploratory locomotor activity, rat PO (McLean et al. screen); assay type: in vivo; conditions: read-out: Inh. Loc. Act. (rat PO) (ED50)
Text: as §1

synthesis of dopamine = assay: Dopamine synthesis in rats treated with gamma-butyrolactone (GBL); assay type: in vivo, rat

| SMILES | ED50 [1] [mg/kg] | ED50 [2] [mg/kg] | synthesis of dopamine (synthesis of dopamine) |
| --- | --- | --- | --- |
| O=c1ccoc2cc(OCCCN3CCN(c4ccccn4)CC3)ccc12 [compound 12] | 5 to 6 | 1.7 |  |
| O=c1ccoc2cc(OCCCN3CCN(c4ccc(Cl)c(Cl)c4)CC3)ccc12 [compound 14] | 14 to 15 | 17.8 |  |
| Cc1cccc(N2CCN(CCCOc3ccc4c(=O)ccoc4c3)CC2)c1 [compound 9] | 5.4 | 4.8 |  |
| O=c1ccoc2ccc(OCCCCN3CCN(c4ccccc4)CC3)cc12 [compound 19, 6-[4-(4-phenyl-1-piperazinyl)butoxy]-4H-1-benzopyran-4-one] | 3 | 1.5 |  |
| Cc1ccc(N2CCN(CCCOc3ccc4c(=O)ccoc4c3)CC2)cc1 [compound 10] | 6.1 | 22.3 |  |
| O=c1ccoc2cc(OCCCN3CCN(c4ccccc4Cl)CC3)ccc12 [compound 13, 7-[3-(4-(2-Chlorophenyl)-1-piperazinyl)propoxy]-4H-1-benzopyran-4-one] | > 30 |  |  |
| Cc1ccc(N2CCN(CCCOc3ccc4c(=O)ccoc4c3)CC2)cc1C [compound 17] | 3 | 7.3 |  |
| COc1ccc(N2CCN(CCCOc3ccc4c(=O)ccoc4c3)CC2)cc1 [compound 15] | 30 | > 30 |  |
| O=c1ccoc2cc(OCCCN3CC=C(c4ccccc4)CC3)ccc12 [compound 1, 7-[3-(4-Phenyl-1,2,3,6-tetrahydro-1-pyridyl)propoxy]-4H-1-benzopyran-4-one] | 0.7 | 29.5 | inhibition of the synthesis of dopamine |
| O=c1ccoc2cccc(OCCCN3CCN(c4ccccc4)CC3)c12 [compound 18, 5-3-(4-phenyl-1-piperazinyl)propoxyl-4H-1-benzopyran-4-one] | 13.3 | 15.6 |  |
| O=c1ccoc2cc(OCCCN3CCN(c4cccc(O)c4)CC3)ccc12 [compound 16] | > 30 |  |  |
| O=c1ccoc2cc(OCCCN3CCC(c4ccccc4)CC3)ccc12 [compound 7, 7-[3-(4-Phenyl-1-piperidinyl)propoxy]-4H-1-benzopyran-4-one] | 14.8 | > 30 |  |
| O=c1ccoc2cc(OCCCCN3CCN(c4ccccc4)CC3)ccc12 [compound 20, 7-[4-(4-Phenyl-1-piperazinyl)butoxy]-4H-1-benzopyran-4-one] | 0.35 | 1.9 |  |
| O=c1ccoc2cc(OCCCN3CCN(c4ccccc4)CC3)ccc12 [compound 2, 7-[3-(4-phenylpiperazinyl)propoxy]-4H-1-benzopyran-4-one] | 2.4 | 4.3 |  |
| O=c1ccoc2cc(OCCCN3CCN(c4cccc(Cl)c4)CC3)ccc12 [compound 5] | 7.7 | 8.5 |  |
| O=c1ccoc2cc(OCCCN3CCN(c4ncccn4)CC3)ccc12 [compound 21] | 23.7 | > 30 |  |
| Cc1ccccc1N1CCN(CCCOc2ccc3c(=O)ccoc3c2)CC1 [compound 8] | 2 | 30 |  |
| COc1ccccc1N1CCN(CCCOc2ccc3c(=O)ccoc3c2)CC1 [compound 6] | 7.7 | > 30 |  |
| O=c1ccoc2cc(OCCCN3CCN(c4ccc(F)cc4)CC3)ccc12 [compound 11] | 7 | 7.1 |  |
| O=c1ccoc2cc(OCCCN3CCN(c4ccc(Cl)cc4)CC3)ccc12 [compound 3] | 11.1 | 18.6 |  |
| Cc1cccc(N2CCN(CCCOc3ccc4c(=O)ccoc4c3)CC2)c1C [compound 4] | 11.2 | 13.2 |  |
